Activity calls are given as the source filed them. The calls are words filed in the database; no cut-off is given here.
Assays:
[1] = Metabolic stability in human liver microsomes assessed as intrinsic clearance; assay type: ADME, Microsome
[2] = Metabolic stability in human liver microsomes assessed as half life; assay type: ADME, Microsome
[3] = molecular target: cGMP-specific 3',5'-cyclic phosphodiesterase (Homo sapiens, UniProt O76074); assay: Inhibition of human recombinant PDE5A1 by fluorescence based assay
[4] = Selectivity index, ratio of IC50 for inhibition of PDE1 (unknown origin) to IC50 for inhibition of human recombinant PDE5A1
[5] = Selectivity index, ratio of IC50 for inhibition of PDE2 (unknown origin) to IC50 for inhibition of human recombinant PDE5A1
[6] = Selectivity index, ratio of IC50 for inhibition of PDE3 (unknown origin) to IC50 for inhibition of human recombinant PDE5A1
[7] = Selectivity index, ratio of IC50 for inhibition of PDE4 (unknown origin) to IC50 for inhibition of human recombinant PDE5A1
[8] = Selectivity index, ratio of IC50 for inhibition of PDE6 (unknown origin) to IC50 for inhibition of human recombinant PDE5A1
[9] = Selectivity index, ratio of IC50 for inhibition of PDE7 (unknown origin) to IC50 for inhibition of human recombinant PDE5A1
[10] = Selectivity index, ratio of IC50 for inhibition of PDE8 (unknown origin) to IC50 for inhibition of human recombinant PDE5A1
[11] = Selectivity index, ratio of IC50 for inhibition of PDE9 (unknown origin) to IC50 for inhibition of human recombinant PDE5A1
[12] = Selectivity index, ratio of IC50 for inhibition of PDE10 (unknown origin) to IC50 for inhibition of human recombinant PDE5A1
[13] = Selectivity index, ratio of IC50 for inhibition of PDE11 (unknown origin) to IC50 for inhibition of human recombinant PDE5A1
[14] = Inhibition of PDE1 (unknown origin) by fluorescent based assay; set-up: species or system Homo sapiens
[15] = Inhibition of PDE2 (unknown origin) by fluorescent based assay; set-up: species or system Homo sapiens
[16] = Inhibition of PDE3 (unknown origin) by fluorescent based assay; set-up: species or system Homo sapiens
Phosphodiesterase 4 = Phosphodiesterase 4 (Homo sapiens, UniProt P27815+Q08499+Q07343+Q08493); assay: Inhibition of PDE4 (unknown origin) by fluorescent based assay; assay type: protein assay
[17] = Inhibition of PDE6 (unknown origin) by fluorescent based assay; set-up: species or system Homo sapiens
Phosphodiesterase 7 = Phosphodiesterase 7 (Homo sapiens, UniProt Q13946+Q9NP56); assay: Inhibition of PDE7 (unknown origin) by fluorescent based assay; assay type: protein assay
[18] = Inhibition of PDE8 (unknown origin) by fluorescent based assay; set-up: species or system Homo sapiens
[19] = Inhibition of PDE9 (unknown origin) by fluorescent based assay; set-up: species or system Homo sapiens
[20] = Inhibition of PDE10 (unknown origin) by fluorescent based assay; set-up: species or system Homo sapiens
[21] = Inhibition of PDE11 (unknown origin) by fluorescent enzymatic assay; set-up: species or system Homo sapiens
Hippocampus [22] = assay: Neuroprotective activity against o-Tau perfused mouse hippocampus tissue assessed as restoration of synaptic plasticity by measuring hippocampal […] at 50 nM for 10 min followed by tetanus stimulation and measured for 2 hrs by electrophysiology analysis; assay type: functional, tissue-based; conditions: time 130.0 min
Hippocampus [23] = assay: Neuroprotective activity against o-Tau perfused mouse hippocampus tissue assessed as restoration of synaptic plasticity by measuring residual potentiation at 50 nM for 10 min followed by tetanus stimulation and measured for 2 hrs by electrophysiology analysis relative to control; assay type: functional, tissue-based; conditions: time 130.0 min
Hippocampus [24] = assay: Neuroprotective activity against mouse hippocampus tissue assessed as restoration of synaptic plasticity by measuring residual potentiation at 50 nM for 10 min followed by tetanus stimulation and measured for 2 hrs by electrophysiology analysis relative to control; assay type: functional, tissue-based; conditions: time 130.0 min

## [2H]C([2H])(Nc1c(CO)cnc2c(C3CC3)cc(C#N)cc12)c1ccc(OC)c(Cl)c1
[1]
  CLH: 85 µL/min/mg
[2]
  t1/2: 16.4 min
[3]
  IC50: 5 nM

## COc1ccc(CNc2c(CO)cnc3c(C4CC4)cc(C#N)cc23)cc1Cl
[1]
  CLH: 80 µL/min/mg
[2]
  t1/2: 20.5 min

## N#Cc1cc(C2CC2)c2ncc(CO)c(NCc3ccc4c(c3)OCO4)c2c1
[1]
  CLH: 88 µL/min/mg
[2]
  t1/2: 15.7 min
[3]
  IC50: 190 nM

## Cn1ccc2cc(CNc3c(CO)cnc4c(C5CC5)cc(C#N)cc34)ccc21
[3]
  IC50: 2800 nM

## COc1ccc(CNc2c(CO)cnc3c(C4CC4)cc(C#N)cc23)cn1
[1]
  CLH: 31 µL/min/mg
[2]
  t1/2: 44.6 min
[4]
  Ratio IC50: > 500
[5]
  Ratio IC50: 9
[6]
  Ratio IC50: > 500
[7]
  Ratio IC50: > 500
[8]
  Ratio IC50: 13
[9]
  Ratio IC50: > 500
[10]
  Ratio IC50: > 500
[11]
  Ratio IC50: > 500
[12]
  Ratio IC50: > 500
[13]
  Ratio IC50: > 500
[14]; read-out: IC50
  IC50: > 10000 nM
[15]
  IC50: 180 nM
[16]; read-out: IC50
  IC50: > 10000 nM
Phosphodiesterase 4
  IC50: > 10000 nM
[17]
  IC50: 260 nM
Phosphodiesterase 7
  IC50: > 10000 nM
[18]; read-out: IC50
  IC50: > 10000 nM
[19]; read-out: IC50
  IC50: > 10000 nM
[20]; read-out: IC50
  IC50: > 10000 nM
[21]; read-out: IC50
  IC50: > 10000 nM
Hippocampus [22]
  Activity: Active
Hippocampus [23]
  Activity: Active
Hippocampus [24]
  Activity: inactive

## COc1ncc(CNc2c(CO)cnc3c(C4CC4)cc(C#N)cc23)cc1Cl
[1]
  CLH: 72 µL/min/mg
[2]
  t1/2: 19.5 min
[8]
  Ratio IC50: 1.9
[3]
  IC50: 30 nM
[14]
  IC50: Not Active
[15]
  IC50: > 10000 nM
[16]
  IC50: Not Active
[17]
  IC50: 58 nM
[18]
  IC50: Not Active
[19]
  IC50: Not Active
[20]
  IC50: Not Active
[21]
  IC50: Not Active

## COc1cc(CNc2c(CO)cnc3c(C4CC4)cc(C#N)cc23)ccn1
[1]
  CLH: 48 µL/min/mg
[2]
  t1/2: 28.8 min
[3]
  IC50: 180 nM

## CCOC(=O)c1cnc2c(C3CC3)cc(C#N)cc2c1NCc1ccc(OC)nc1
[3]
  IC50: 1300 nM

## COc1cc(CNc2c(CO)cnc3c(C4CC4)cc(C#N)cc23)cc(OC)c1OC
[3]
  IC50: 3400 nM

## N#Cc1cc(C2CC2)c2ncc(CO)c(NCc3ccnc(Cl)c3)c2c1
[1]
  CLH: 80 µL/min/mg
[2]
  t1/2: 17.3 min
[3]
  IC50: 820 nM
